# Assay results from patent publication US5179122A, “Nutritional supplement containing Vitamin E” (priority 1991, dated 1993).
# Read-outs that look alike come from different tables or passages of the source.
# Tests used:
# [1] = human, in vivo, po; cited from earlier work
# [2] = solubilized in medium-chain triglycerides; cited from earlier work
# [3] = same patients; tocopherol in vegetable oil; cited from earlier work
# [4] = some species; even in water dispersible forms; cited from earlier work
# [5] = 3% aqueous solution of Tween-80; cited from earlier work
# [6] = rats; aqueous lecithin dispersed, containing medium chain triglycerides; cited from earlier work
# [7] = Melt temperature of VEA/Myvatex Texture Lite blends by differential scanning calorimetry; format: physicochemical; settings: VEA/Myvatex Texture Lite (wt. %); DSC
# Excerpt: This example illustrates the affect of Myvatex Texture Lite food emulsifier on the melt temperature of VEA. The solid blend was formulated as described in Example 2.
# [8] = Melt temperature of VEA/TPGS blends by differential scanning calorimetry; format: physicochemical
# Description: In this example, miscibility of the blends was investigated by determining the melt temperature of various blend ratios. […] The mixture was heated and blended to a homogeneous blend and cooled to room temperature. The melting point of each blend was determined by differential scanning calorimetry.
# [9] = zoo animals; remaining excreted unchanged; cited from earlier work
# [10] = horses; 0, 200, 600, 1800 and 5400 mg daily; cited from earlier work
compound,measurement,setting,value
Vitamin E,absorption,[1],enhanced absorption
"Cc1c(C)c2c(c(C)c1O)CCC(C)(CCCC(C)CCCC(C)CCCC(C)C)O2 (stereo not drawn) [tocopherol, alpha-tocopherol]",absorption of tocopherol,[2],enhanced absorption
same,increase of tocopherol in the blood,[3],no significant increase
same,bioavailability,[4],not bioavailable
Vitamin A,absorption,[1],enhanced absorption
"CC(=O)Oc1c(C)c(C)c2c(c1C)CCC(C)(CCC[C@H](C)CCC[C@H](C)CCCC(C)C)O2 (mixture of isomers) [VEA, d- or dl-alpha-tocopheryl acetate]",absorption rate relative to vegetable oil solution of VEA,[5],twice the rate
same,absorption of tocopherol,[6],enhanced absorption
same,Melt Temperature,[7],2.9 °C
same,bioavailability,[4],not bioavailable
same,Melt Temperature,"[8]; VEA/TPGS (wt. %), DSC",2.9 °C
same,TPGS required to solidify VEA,[8]; at room temperature,25%
CC(=O)Oc1c(C)c(C)c2c(c1C)CCC(C)(CCCC(C)CCCC(C)CCCC(C)C)O2 (racemic) [dl-alpha-tocopheryl acetate],administered tocopherol absorbed,[9],one-half
same,serum tocopherol levels with increasing dosage,[10],increased almost linearly
